Measurements: article PMC11679705 (2024)

Legend:
[1] = tested on: F-SA5-T (DNA, G4) GGAAGGAGGGGTGACAGGG; experiment: FRET melting; conditions: 10 mM K+, 90 mM Li+; 10 mM lithium cacodylate, pH 7.2; 5 µM compound, 0.2 µM DNA
[2] = tested on: F-ds26-T (DNA, duplex) CAATCGGATCGAATTCGATCCGATTG; experiment: FRET melting; conditions: 10 mM K+, 90 mM Li+; 10 mM lithium cacodylate, pH 7.2; 5 µM compound, 0.2 µM DNA
[3] = tested on: ds26 (DNA, duplex) CAATCGGATCGAATTCGATCCGATTG; experiment: UV/Vis titration; conditions: 100 mM K+, 10 mM lithium cacodylate, pH 7.2, independent-and-equivalent-sites model
[4] = tested on: EBR1 (DNA, G4) GGGCAGGGGGTGATGGGGAGGAGCCAGGG; experiment: UV/Vis titration; design: unit not given here; conditions: 100 mM K+, 10 mM lithium cacodylate, pH 7.2, independent-and-equivalent-sites model
[5] = tested on: F-SA3-T (DNA, G4) GGGGCTAATTGGGGCTGGTGG; experiment: FRET melting; conditions: 10 mM K+, 90 mM Li+; 10 mM lithium cacodylate, pH 7.2; 5 µM compound, 0.2 µM DNA
[6] = tested on: mit9438 (DNA, G4) GGCGTAGGTTTGGTCTAGGG; experiment: UV/Vis titration; design: unit not given here; conditions: 100 mM K+, 10 mM lithium cacodylate, pH 7.2, independent-and-equivalent-sites model
[7] = tested on: SA5 (DNA, G4) GGAAGGAGGGGTGACAGGG; experiment: UV/Vis titration; design: unit not given here; conditions: 100 mM K+, 10 mM lithium cacodylate, pH 7.2, independent-and-equivalent-sites model
[8] = tested on: F-mit9438-T (DNA, G4) GGCGTAGGTTTGGTCTAGGG; experiment: FRET melting; conditions: 10 mM K+, 90 mM Li+; 10 mM lithium cacodylate, pH 7.2; 5 µM compound, 0.2 µM DNA
[9] = tested on: F-21-T (DNA, G4) GGGTTAGGGTTAGGGTTAGGG; experiment: FRET melting; conditions: 10 mM K+, 90 mM Li+; 10 mM lithium cacodylate, pH 7.2; 5 µM compound, 0.2 µM DNA
[10] = tested on: F-EBR1-T (DNA, G4) GGGCAGGGGGTGATGGGGAGGAGCCAGGG; experiment: FRET melting; conditions: 10 mM K+, 90 mM Li+; 10 mM lithium cacodylate, pH 7.2; 5 µM compound, 0.2 µM DNA
[11] = tested on: F-mit6363-T (DNA, G4) AGGGACGCGGGCGGGGGATATAGGGT; experiment: FRET melting; conditions: 10 mM K+, 90 mM Li+; 10 mM lithium cacodylate, pH 7.2; 5 µM compound, 0.2 µM DNA

| SMILES | ΔTm [2] | Ka ([3]; 7 µM ligand) | Ka ([4]; 7 µM ligand) | Ka ([6]; 7 µM ligand) | Ka ([7]; 7 µM ligand) | other results |
| --- | --- | --- | --- | --- | --- | --- |
| CCCNc1cc2c3c(ccc4c3c1C(=O)N(CCCN(C)C)C4=O)C(=O)N(CCCN(C)C)C2=O |  |  |  |  |  | ΔTm [1]: 4.7 ± 1.0 °C |
| C[N+](C)(C)c1ccc(/C=C/c2cc(/C=C/c3ccc([N+](C)(C)C)cc3)c(/C=C/c3ccc([N+](C)(C)C)cc3)cc2/C=C/c2ccc([N+](C)(C)C)cc2)cc1 | -4.7 ± 0.6 °C | 0.562 µM⁻¹ | 0.801 | 1.420 | 1.065 | ΔTm [5]: 9.7 ± 0.6 °C |
| C[N+](C)(C)c1ccc(/C=C/c2cc(/C=C/c3ccc([N+](C)(C)C)cc3)cc(/C=C/c3ccc([N+](C)(C)C)cc3)c2)cc1 |  |  |  |  |  | Ka ([3]; 4 µM ligand): 0.083 µM⁻¹; Ka ([4]; 4 µM ligand): 0.672; ΔTm [5]: 31.3 ± 0.6 °C; Ka ([6]; 4 µM ligand): 0.821; Ka ([7]; 4 µM ligand): 0.651 |
| C[n+]1ccc(-c2c3nc(c(-c4cc[n+](C)cc4)c4ccc([nH]4)c(-c4cc[n+](C)cc4)c4nc(c(-c5cc[n+](C)cc5)c5ccc2[nH]5)C=C4)C=C3)cc1 |  |  |  |  |  | ΔTm [8]: 31.0 ± 0.0 °C; ΔTm [1]: 29.0 ± 2.1 °C |
| C[n+]1ccc(/C=C/c2cc(/C=C/c3cc[n+](C)cc3)c(/C=C/c3cc[n+](C)cc3)cc2/C=C/c2cc[n+](C)cc2)cc1 | 9.0 ± 1.0 °C | 0.267 µM⁻¹ | 0.367 | 1.548 | 0.513 | ΔTm [9]: 34.7 ± 0.0 °C; ΔTm [10]: 35.3 ± 0.6 °C; ΔTm [11]: 33.0 ± 0.0 °C |
| C[n+]1ccc(/C=C/c2cc(/C=C/c3cc[n+](C)cc3)cc(/C=C/c3cc[n+](C)cc3)c2)cc1 |  | 0.165 µM⁻¹ | 0.528 | 1.167 | 1.411 |  |
| NCCOc1cc(C(=O)Nc2cc(OCCN)c3ccccc3n2)nc(C(=O)Nc2cc(OCCN)c3ccccc3n2)c1 | 0.7 ± 0.6 °C |  |  |  |  | ΔTm [9]: 24.0 ± 1.1 °C |
